Experimental data: patent US12310940B2, “Cell-permeable succinate compounds” (ABLIVA AB, priority 2014, dated 2025)
“Also recorded” adds a separate entry of the source.

How the values were obtained:
[1] = tested on: cells with inhibited complex I; experiment: Screening assay (1): enhancement of mitochondrial energy producing function in cells with inhibited respiratory complex I (high-resolution respirometry); format: cell-based, human; parameters: key: graded either +, ++ or +++ in increasing order of potency; graded either +, ++ or +++ in increasing order of potency; graded either +, ++ or +++ in increasing order of potency; (+): Brackets [( )] indicate an intermediate effect; (++): Brackets [( )] indicate an intermediate effect; (+++) is between ++ and +++; details: increase in mitochondrial oxygen consumption in cells with inhibited complex I
Experimental: (§1) Measurement of mitochondrial respiration is performed in a high-resolution oxygraph (Oxygraph-2k, Oroboros Instruments, Innsbruck, Austria) at a constant temperature of 37° C. Isolated human platelets, white blood cells, fibroblasts, human heart muscle fibers or other cell types containing live mitochondria are suspended in a 2 mL glass chamber at a concentration sufficient to yield oxygen consumption in the medium of ≥10 pmol O2 s^−1 mL^−1.
(1) Assay for Enhancement of Mitochondrial Energy Producing Function in Cells with Inhibited Respiratory Complex I
Cells are placed in a buffer containing 110 mM sucrose, HEPES 20 mM, taurine 20 mM, K-lactobionate 60 mM, MgCl2 3 mM, KH2PO4 10 mM, EGTA 0.5 mM, BSA 1 g/l, pH 7.1. […] Compounds dissolved in DMSO are titrated in a range of 10 μM to 10 mM final concentration. Subsequently, cell membranes are permeabilised with digitonin (1 mg/1*10^6 plt) to allow entry of extracellularly released energy substrate or cell impermeable energy substrates. After stabilized respiration, Succinate 10 mM is added as a reference to enable respiration downstream of complex I. After the respiration stabilized the experiment is terminated by addition of Antimycin at final concentration 1 μg/mL and any residual non-mitochondrial oxygen consumption is measured. An increase in respiration rate in the described protocol is tightly coupled to ATP synthesis by oxidative phosphorylation unless cells are uncoupled (i.e. proton leak without production of ATP). Uncoupling is tested for by addition of the ATP synthase inhibitor oligomycin (1-2 μg mL^−1) in a protocol 3 where the extent of uncoupling corresponds to the respiratory rate following oligomycin addition.

intact cells [2] = experiment: Screening assay (2): enhancement and inhibition of mitochondrial energy producing function in intact cells (FCCP uncoupled); format: cell-based, human; parameters: key to Convergent (FCCP): graded either +, ++ or +++ in increasing order of potency; graded either +, ++ or +++ in increasing order of potency; graded either +, ++ or +++ in increasing order of potency; (+): Brackets [( )] indicate an intermediate effect; (++): Brackets [( )] indicate an intermediate effect; (+++) is between ++ and +++; details: for Convergent (FCCP): increase in mitochondrial oxygen consumption induced by the compound, screening assay 2 (uncoupled conditions); for Toxicity: lowest concentration during compound titration at which a decrease in oxygen consumption is seen, screening assay 2
Experimental: as §1
(2) Assay for Enhancement and Inhibition of Mitochondrial Energy Producing Function in Intact Cells
In the second protocol the same buffer is used as described above. After basal respiration is established, the mitochondrial uncoupler FCCP is added at a concentration of 2 nM to increase metabolic demand.

intact cells [3] = experiment: Screening assay (3): assay to assess uncoupling in intact cells; format: cell-based, human; parameters: key: graded either +, ++ or +++ in increasing order of potency; graded either +, ++ or +++ in increasing order of potency; graded either +, ++ or +++ in increasing order of potency; (+): Brackets [( )] indicate an intermediate effect; (++): Brackets [( )] indicate an intermediate effect; (+++) is between ++ and +++; details: for Convergent (Routine): increase in mitochondrial oxygen consumption induced by the compound; for Uncoupling: level of oxygen consumption after addition of oligomycin
Experimental: Measurement of mitochondrial respiration is performed in a high-resolution oxygraph (Oxygraph-2k, Oroboros Instruments, Innsbruck, Austria) at a constant temperature of 37° C. […] In the third protocol, the same buffer as described above is used. […] Subsequently, the ATP-synthase-inhibitor Oligomycin is added. A reduction in respiration is a measure of how much of the oxygen consumption that is coupled to ATP synthesis. No, or only a slight, reduction indicate that the compound is inducing a proton leak over the inner mitochondrial membrane. The uncoupler FCCP is then titrated to induce maximum uncoupled respiration. […] The experiment is terminated by the addition of 1 μg/mL of the complex III inhibitor Antimycin to measure non-mitochondrial oxygen consumption.

Intact human blood cells = experiment: Screening assay (4): enhancement of mitochondrial energy producing function in cells with inhibited respiratory complex I in human plasma; format: cell-based; parameters: key: graded either +, ++ or +++ in increasing order of potency; graded either +, ++ or +++ in increasing order of potency; graded either +, ++ or +++ in increasing order of potency; (+): Brackets [( )] indicate an intermediate effect; (++): Brackets [( )] indicate an intermediate effect; (+++) is between ++ and +++; details: increase in mitochondrial oxygen consumption in cells with inhibited complex I incubated in human plasma
Experimental: Measurement of mitochondrial respiration is performed in a high-resolution oxygraph (Oxygraph-2k, Oroboros Instruments, Innsbruck, Austria) at a constant temperature of 37° C. […] Intact human blood cells are incubated in plasma from the same donor. […] The experiment is terminated by addition of Antimycin at final concentration 1 μg/mL and any residual non-mitochondrial oxygen consumption is measured.

intact cells [4] = experiment: Assays exemplified in the patent (not specified further) for known succinate esters; format: cell-based
Excerpt: I. Assays for Evaluating Enhancement and Inhibition of Mitochondrial Energy Producing Function in Intact Cells
Four Typical Evaluation Protocols in Intact Cells are Utilized.

intact human platelets [5] = experiment: Intervention on metformin- or rotenone-induced lactate production with cell-permeable succinate prodrugs; format: cell-based; details: for effect on rotenone-induced lactate production: 2 μM rotenone, repeated additions of 250 μM; for effect on lactate production of metformin-incubated cells: 10 mM metformin, additions of 250 μM each 30 minutes
Experimental: Lactate production of intact human platelets was determined in PBS containing 10 mM glucose.
(§2) Lactate levels are determined every 2 h (or more frequent eg every 30 min) using the Lactate Pro™ 2 blood lactate test meter (Arkray, Alere AB, Lidingö, Sweden) or similar types of measurements. Incubation is performed at 37° C. pH is measured at start, after 4 and after 8 h (or more frequently) of incubation using a Standard pH Meter, e.g. PHM210 (Radiometer, Copenhagen, Denmark). Drug candidates are added to the assay from start or following 30-60 min at concentrations within the range 10 μM-5 mM. […] In order to evaluate the specificity of the drug candidate, it is also tested in combination with a down-stream inhibitor of respiration such as the complex III inhibitor Antimycin at 1 μg/mL, which should abolish the effect of the drug candidate and restore the production of lactate. The use of antimycin is therefore also a control for undue effects of drug candidates on the lactate producing ability of the cells used in the assay. (See e.g. FIGS. 9, 10 and 11).
Lactate levels were measured in intervals of 30 min with the onset of the experiment. Additionally, pH was measured prior to the first addition of vehicle (dmso, control), the different cell-permeable succinate prodrugs (NV118, NV189, NV241) or succinate and at the end of the experiment.

intact PBMCs = experiment: Lactate release of intact PBMCs exposed to metformin; format: cell-based, human; details: 10 mM metformin, data not shown
intact human platelets [6] = tested on: intact human platelets
Experimental: Real-time respirometric measurements were performed using high-resolution oxygraphs (Oxygraph-2k, Oroboros Instruments, Innsbruck, Austria). The experimental conditions during the measurements were the following: 37° C., 2 mL active chamber volume and 750 rpm stirrer speed. […] For data recording, DatLab software version 4 and 5 were used (Oroboros Instruments, Innsbruck, Austria). Settings, daily calibration and instrumental background corrections were conducted according to the manufacturer's instructions. […] All measurements were performed at a platelet concentration of 200×10^6 cells per mL or a PBMC concentration of 5×10^6 cells per mL.
Venous blood from 18 healthy adults (11 males and 7 females) was drawn in K2EDTA tubes (BD Vacutainer® Brand Tube with dipotassium EDTA, BD, Plymouth, UK) according to clinical standard procedure after written informed consent was acquired. For platelet isolation the whole blood was centrifuged (Multifuge 1 S—R Heraeus, Thermo Fisher Scientifics, Waltham, USA) at 500 g at room temperature (RT) for 10 min. Platelet-rich plasma was collected to 15 mL falcon tubes and centrifuged at 4600 g at RT for 8 min. The resulting pellet was resuspended in 1-2 mL of the donor's own plasma. […] The blood remaining after isolation of platelets was washed with an equal volume of physiological saline and layered over 3 mL of Lymphoprep™. After centrifugation at 800 g at RT (room temperature) for 30 min the PBMC layer was collected and washed with physiological saline. Following a centrifugation at 250 g at RT for 10 min the pellet of PBMCs was resuspended in two parts of physiological saline and one part of the donor's own plasma. Cell count for both PBMCs and platelets were performed using an automated hemocytometer (Swelab Alfa, Boule Medical AB, Stockholm, Sweden).
Routine respiration was followed for 60 min at 37° C. before the ATP-synthase inhibitor oligomycin (1 μg mL^−1) was added to assess LEAK respiration. Maximal uncoupled respiratory electron transport system capacity supported by endogenous substrates (ETS) was reached by titration of FCCP.

[7] = tested on: permeabilized human PBMCs; experiment: cells; details: PBMC, read-out: IC50 for inhibition of OXPHOSCI
Experimental: Real-time respirometric measurements were performed using high-resolution oxygraphs (Oxygraph-2k, Oroboros Instruments, Innsbruck, Austria). The experimental conditions during the measurements were the following: 37° C., 2 mL active chamber volume and 750 rpm stirrer speed. […] For data recording, DatLab software version 4 and 5 were used (Oroboros Instruments, Innsbruck, Austria). Settings, daily calibration and instrumental background corrections were conducted according to the manufacturer's instructions. […] Standard non-linear curve fitting was applied to calculate half maximal inhibitory concentration (IC50) values. […] Maximal uncoupled respiratory electron transport system capacity supported by convergent input through complex I and […] ) was evaluated by subsequent titration with the protonophore carbonyl-cyanide p-(trifluoromethoxy) phenylhydrazone (FCCP). […] The complex III inhibitor antimycin (1 μg mL^-1) was then given to reveal residual oxygen consumption (ROX). […] Complex IV activity was calculated by subtracting the sodium azide value from the TMPD value. With exception of complex IV activity, all respiratory states were measured at steady-state and corrected for ROX. Complex IV activity was measured after ROX determination and not at steady-state.

[8] = Al-Abri et al., 2013; cited from earlier work
intact human platelets [9] = experiment: Effect of metformin and phenformin on lactate production and pH of intact human platelets; format: cell-based; details: metformin 1 and 10 mM, phenformin 0.5 mM, rotenone 2 μM
Experimental: as §2
Incubation was performed at 37° C. at a stirrer speed of 750 rpm, and pH was measured at start, after 4 and after 8 h of incubation (n=4) using a PHM210 Standard pH Meter (Radiometer, Copenhagen, Denmark).

[10] = tested on: permeabilized human platelets
Experimental: (§3) Real-time respirometric measurements were performed using high-resolution oxygraphs (Oxygraph-2k, Oroboros Instruments, Innsbruck, Austria). The experimental conditions during the measurements were the following: 37° C., 2 mL active chamber volume and 750 rpm stirrer speed. […] For data recording, DatLab software version 4 and 5 were used (Oroboros Instruments, Innsbruck, Austria). Settings, daily calibration and instrumental background corrections were conducted according to the manufacturer's instructions. […] Lactate production of intact human platelets was determined in PBS containing 10 mM glucose. All measurements were performed at a platelet concentration of 200×10^6 cells per mL or a PBMC concentration of 5×10^6 cells per mL.
(§4) All respiratory, lactate and pH data are expressed as mean±SEM. Ratios are plotted as individuals and means. One-way ANOVA was used for one-factor comparison of three or more groups (concentration of drugs) and two-way mixed model ANOVA was used for two-factor comparison (time and concentration of drugs/treatment) of three or more groups. Post-hoc tests to compensate for multiple comparisons were done according to Holm-Sidak. Correlations were expressed as r^2 and P-values. […]
(§5) In order to investigate the specific target of biguanide toxicity, a protocol was applied using digitonin permeabilization of the blood cells and sequential additions of respiratory complex-specific substrates and inhibitors in MiR05 medium. […] Maximal uncoupled respiratory electron transport system capacity supported by convergent input through complex I and II (ETSCI+II) was evaluated by subsequent titration with the protonophore carbonyl-cyanide p-(trifluoromethoxy) phenylhydrazone (FCCP). […] Complex IV activity was calculated by subtracting the sodium azide value from the TMPD value. With exception of complex IV activity, all respiratory states were measured at steady-state and corrected for ROX. Complex IV activity was measured after ROX determination and not at steady-state.

[11] = tested on: permeabilized human platelets; experiment: cells; details: Platelet, read-out: IC50 for inhibition of OXPHOSCI
Experimental: as §3, §4, §5

[12] = patients; cited from earlier work

| SMILES | CII [1] | Convergent (FCCP) (intact cells [2]) | Toxicity (intact cells [2]) [mM] | Convergent (Routine) (intact cells [3]) | Uncoupling (intact cells [3]) | CII (plasma) (Intact human blood cells) | other results |
| --- | --- | --- | --- | --- | --- | --- | --- |
| CCC(=O)N[C@@H](CSC(=O)CCC(=O)O)C(=O)O [01-041, (R)-4-(2-carboxy-2-propionamidoethylthio)-4-oxobutanoic acid] | ++ | +++ | 5 | + | (+) | + |  |
| CC(=O)NCCSC(=O)CCC(=O)O [01-108, 4-(2-acetamidoethylthio)-4-oxobutanoic acid] | (++) | ++ | 10 | ++ | + | (+) |  |
| CCC(=O)NCCSC(=O)CCC(=O)O [01-114, 4-oxo-4-(2-propionamidoethylthio)butanoic acid] | ++ | ++ | 10 | +++ | (+) | + |  |
| CCC(=O)N[C@@H](CSC(=O)CCC(=O)SC[C@H](NC(=O)CC)C(=O)N(CC)CC)C(=O)N(CC)CC [01-185, S,S-bis((R)-3-(diethylamino)-3-oxo-2-propionamidopropyl) butanebis(thioate)] | + | + | 2 | (+) | (+) | + |  |
| CC(=O)NCC(C)(C)SC(=O)CCC(=O)O [01-188, 4-(1-acetamido-2-methylpropan-2-ylthio)-4-oxobutanoic acid] | + | +++ | 5 | +++ | (+) | + |  |
| CCN(CC)C(=O)COCCSC(=O)CCC(=O)O [01-193, 4-(2-(2-(diethylamino)-2-oxoethoxy)ethylthio)-4-oxobutanoic acid] | + | + | 5 | (++) | + | (+) |  |
| CCC(=O)N[C@@H](CSC(=O)CCC(=O)SC[C@H](NC(=O)CC)C(=O)OC)C(=O)OC [01-205, (R)-methyl 3-(4-((R)-3-methoxy-3-oxo-2-propionamidopropylthio)-4-oxobutanoylthio)-2-propionamidopropanoate] | ++ | ++ | 5 | +++ | (+) | + |  |
| CCOC(=O)CCC(=O)OCC [Diethyl succinate] |  |  |  |  |  |  | activity in the assays exemplified (intact cells [4]): inactive |
| CC(=O)OCOC(=O)CCC(=O)OCOC(C)=O [NV118] |  |  |  |  |  |  | effect on rotenone-induced lactate production (intact human platelets [5]): attenuated; effect on lactate production of metformin-incubated cells (intact human platelets [5]): significantly decreased |
| CC(=O)OC(C)OC(=O)CCC(=O)OC(C)OC(C)=O (stereo not drawn) [NV189] |  |  |  |  |  |  | effect on rotenone-induced lactate production (intact human platelets [5]): attenuated; also recorded: brought back to normal; effect on lactate production of metformin-incubated cells (intact human platelets [5]): significantly decreased |
| CC(=O)OCOC(=O)CCC(=O)OC(C)OC(C)=O (stereo not drawn) [NV241] |  |  |  |  |  |  | effect on rotenone-induced lactate production (intact human platelets [5]): attenuated; effect on lactate production of metformin-incubated cells (intact human platelets [5]): significantly decreased |
| COC(=O)CCC(=O)OC [dimethyl succinate] |  |  |  |  |  |  | activity in the assays exemplified (intact cells [4]): inactive |
| CN(C)C(=N)N=C(N)N [metformin] |  |  |  |  |  |  | lactate release of intact PBMCs (intact PBMCs): increased lactate release; LEAK respiration in intact cells (intact human platelets [6]; data not shown): not significantly changed; toxic concentration seen in the present study (intact human platelets [6]; human blood cells): 1 mM; reversibility of complex I inhibition upon removal of the drug (intact human platelets [6]; washing and permeabilizing the cells): did not seem to be reversible; IC50 [7]: 450 µM; serum level in a case report of involuntary intoxication, prior to hemodialysis [8]: over 2 mM |
| COC(=O)CCC(=O)O [monomethyl succinate] |  |  |  |  |  |  | activity in the assays exemplified (intact cells [4]): inactive |
| [H]/N=C(/N)N/C(=N/[H])NCCc1ccccc1 [phenformin] |  |  |  |  |  |  | lactate produced over 8 h of treatment compared to control (intact human platelets [9]): significantly more lactate; effect on OXPHOSCI, OXPHOSCI+II and ETSCI+II [10]: inhibited; potency of inhibition of OXPHOSCI relative to metformin [10]: 20 fold; IC50 [11]: 58 µM; incidence of lactic acidosis [12]: 4 cases per 10000 treatment-years |
| O=C(O)CCC(=O)O [succinate] |  |  |  |  |  |  | effect on lactate production of metformin-incubated cells (intact human platelets [5]): did not reduce; also recorded: did not change this |
